# Test results taken from patent publication US20060239926A1, “Specific high-relaxivity compounds” (GUERBET, priority 2003, published 2006).
# Key:
# [1] = biological target: T1, MMP-2 (Homo sapiens, UniProt P08253); conditions: read-out: IC50 on MMP-2 (literature); cited from earlier work
# T1 sequence (P08253 110-660): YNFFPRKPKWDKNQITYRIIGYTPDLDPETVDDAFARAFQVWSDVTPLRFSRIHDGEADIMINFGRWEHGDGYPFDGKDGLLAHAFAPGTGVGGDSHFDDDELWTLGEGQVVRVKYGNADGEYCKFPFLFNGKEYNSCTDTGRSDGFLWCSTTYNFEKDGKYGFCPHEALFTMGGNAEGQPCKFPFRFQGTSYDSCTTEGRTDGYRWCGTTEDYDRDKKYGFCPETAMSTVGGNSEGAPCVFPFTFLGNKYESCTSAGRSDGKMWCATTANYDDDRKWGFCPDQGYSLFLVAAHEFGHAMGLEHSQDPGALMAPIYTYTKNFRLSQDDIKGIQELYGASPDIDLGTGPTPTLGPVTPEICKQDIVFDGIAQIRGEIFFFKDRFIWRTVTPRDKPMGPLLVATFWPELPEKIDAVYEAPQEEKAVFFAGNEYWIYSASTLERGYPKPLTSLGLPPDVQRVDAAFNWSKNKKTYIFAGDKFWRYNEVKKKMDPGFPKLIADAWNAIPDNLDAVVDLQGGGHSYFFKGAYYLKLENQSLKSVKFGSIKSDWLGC
# [2] = biological target: T1, MMP-2; assay: In vitro MMP-inhibiting activity (fluorimetry), MMP-2; format: biochemical
# Experimental: The inventors also tested the in vitro activity in order to evaluate the inhibitory activity of P947 and of the tetrapeptide on MMP-2, a gelatinase A expressed constitutively in the vascular wall and overexpressed in the case of inflammation.
# Control: commercial tetrapeptide (called peptide B in the study): 4-Abz-Gly-Pro-Dleu-Dala-NHOH (Bachem); inhibitor of MMP-1, MMP-2 and MMP-3.
# The detailed protocol is as follows for MMP2s: the product tested is added to a 50 mM. Tris-HCl buffer (pH 7.5) containing 150 mM NaCl, 10 mM […], 0.02% NaN3, 0.05% Brij®35 and 0.35 μM MMP-2 activated by incubation for 120 minutes at 37° C. with 6.67 mM APMA. The fluorescence intensity is measured after preincubation for 30 minutes at 37° C., at lambda ex=340 nm and lambda em=405 nm. The enzyme reaction is initiated by adding 6 μM NFF-2, with subsequent incubation for 90 minutes at 37° C.
# [3] = biological target: T2, human MMP-1 (Homo sapiens, UniProt P03956); conditions: value of the peptide component, not of the Gd conjugate, read-out: IC50 OF THE PEPTIDE (LITERATURE); cited from earlier work
# T2 sequence (P03956 100-469): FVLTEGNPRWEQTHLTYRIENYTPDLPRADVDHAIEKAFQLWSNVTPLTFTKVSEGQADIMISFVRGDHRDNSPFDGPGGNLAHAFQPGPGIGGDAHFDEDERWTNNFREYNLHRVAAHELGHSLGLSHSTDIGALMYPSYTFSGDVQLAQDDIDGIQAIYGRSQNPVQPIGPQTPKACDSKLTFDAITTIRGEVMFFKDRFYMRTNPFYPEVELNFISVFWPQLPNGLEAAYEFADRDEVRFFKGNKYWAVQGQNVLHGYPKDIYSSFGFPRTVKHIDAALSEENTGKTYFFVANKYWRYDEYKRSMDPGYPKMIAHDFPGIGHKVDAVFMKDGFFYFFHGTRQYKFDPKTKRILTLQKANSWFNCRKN
# [4] = biological target: T2, human MMP-1; assay: In vitro MMP-inhibiting activity (fluorimetry), MMP-1; format: biochemical
# Experimental: The inventors assayed the in vitro activity of the P947 and P967 gadolinium-chelate contrast products functionalized with matrix metalloproteases inhibitors (MMPs), on human MMP-1 and MMP-3. As regards the affinity of the biovector component, on the receptor, the controls were two peptides:
# More precisely, the in vitro MMP-inhibiting activity was evaluated in the following way: • 1. Incubation of the test product in the presence of the MMP enzyme, at 37° C., for a defined period of time, and then measurement of the fluorescence of the medium (t=0). • 2. Induction of the enzyme reaction by addition of the substrate to (which becomes fluorescent when it is cleaved by the enzyme), and then incubation at 37° C. for 40 min. A second measurement of fluorescence is then taken (t=40). • 3. The activity of the MMP enzyme is determined by subtraction of the signal measured by fluorimetry: (t=40)-(t=0). • 4. The results are expressed as percentage inhibition of the activity of the control enzyme. • 5. The standard inhibitory product is TIMP-1.
# The products were tested in duplicate, at 10^−5, 10^−7 and 10^−9 M with respect to peptides. Those which contain no peptides were treated in a manner similar to the corresponding functionalized contrast products.
# [5] = tested on: macrophages located in the plaques; assay: Ex vivo distribution of PS-NBD in atheroma plaques of ApoE-KO mice; format: cell-based
# Experimental: For this, samples of heart comprising valves and aortic arch and also the iliac bifurcation are incubated in the presence of PS-NBD.
# [6] = tested on: primary macrophages from WHHL rabbits; assay: Ex vivo incubation of WHHL rabbit macrophages/aortic tissues with PS-NBD, fluorescence microscopy; format: cell-based; conditions: incubated 18 h ex vivo; 35 μM
# Experimental: In fact macrophages were isolated from aortic arch and mesenteric lymph node samples, and then incubated for 18 h ex vivo in the presence of PS-NBD. […] More precisely, the rabbit was subjected to exsanguinating perfusion with heparinized newborn calf serum before being sacrificed. The aortic arch, the thoracic aorta and the abdominal aorta were removed. The tissue removed were incubated for 18 hours in cell culture medium to which PS-NBD had been added and were then mounted in frozen blocks in order for histological sections to be cut. Certain sections were observed by fluorescence microscopy and others were immunolabelled using an anti-rabbit macrophage antibody (RAM 11).
# • Incubation of the samples at 37° C. in 24-well plates in the presence of PS-NBD at 35 μM for 18 hours. • 2 rinses of the arteries in PBS. • Embedding of each piece of aorta in a freezing gel. • Cryofixation. • Storage of the components in a −80° C. freezer. Immunohistochemistry (HEGP) • The mouse primary antibody Ram 11 is used at a 1/100 dilution. • The secondary antibody (goat anti-mouse) is coupled to alkaline phosphatase. • The chromogen used is ADC (supplied by AbCys). • Fast re counterstaining is carried out.
# [7] = tested on: THP-1 cells; assay: Uptake of PS-NBD by THP-1 cells, flow cytometry; format: cell-based, human; conditions: PS-NBD range 13, 32 and 64 μM; 24 hours
# Experimental: In vitro validation was performed by comparing the rate of uptake by activated macrophages versus non-activated macrophages (activated THP-1 cells are positive for the PS receptor). […] PS-NBD is a phosphatidylserine comprising only one fatty chain, the other arm linked to the serine head supporting the fluorescence marker NBD.
# The THP-1 cell line is a human monocyte line which, after activation, differentiates into macrophages and expresses the phosphatidylserine receptor. These cells were cultured in the presence of phosphatidylserine-NBD.
# Protocol with Flow Cytometry • 2 ml of a suspension of THP-1 at 10^6 C/ml are seeded in a 6-well plate. • The THP-1 are activated for 24 hours with 50 nmol/l of PMA. • […] of each of the dilutions (from the solution at 6.25 mmol/l) are incubated for 24 hours. • The excess product is suctioned off. • The cell layer is washed with 1 ml of RPMI without phenol red. • The excess is suctioned off. • The cells are resuspended in 1 ml of PBS (detachment of the cells using a flow of medium over the layer then scraping of the cells which have not detached, using a scraper). • The cells are kept in the dark at 4° C. while awaiting reading. • The fluorescence is read in FL1 at 525 nm by flow cytometry.
# PS-NBD range tested: 13, 32 and 64 μM
# Groups tested: THP-1/PMA, THP-1/PS-NBD at 5 μM.
concentration from which significant inhibitory activity on MMP-2 [2],SIGNIFICANT INHIBITORY EFFECT ([4]; concentration of peptide 10^−5M) [%],"CONCENTRATION OF PEPTIDE (with significant inhibitory effect) ([4]; tested at 10^−5, 10^−7 and 10^−9 M with respect to peptides)",Compound,IC50 [1] [µM],IC50 [3] [nM],interaction with macrophages in atheroma plaques [5],intracellular accumulation in macrophages [6],"ratio of the negative control to the highest concentration (fluorescence, FL1 525 nm) [7]"
≥ 10^−5 M,46,10^−5M,4-Abz-Gly-Pro-Dleu-Dala-NHOH [PEPTIDE B],30,1000,–,–,–
–,–,–,CCCCCCCCCCCCCCCC(=O)OC[C@H](COP(=O)(O)OC[C@H](N)C(=O)O)OC(=O)CCCCCNc1ccc([N+](=O)[O-])c2nonc12 [PS-NBD],–,–,interacts specifically with the macrophages located in the plaques,large intracellular accumulation,> 50
